The source of these data is US10611740B2, “Aryl dihydro-2H-benzo[b][1,4]oxazine sulfonamide and related compounds for use as agonists of RORγ and the treatment of disease” (Lycera Corporation, priority 2015, dated 2020).

One assay concerns the target T1, RORγ-LBD (Homo sapiens, UniProt P51449).
T1 construct: made in house; host or cells: SF9 cells (baculovirus)
T1 sequence (P51449 269-508 limits assumed): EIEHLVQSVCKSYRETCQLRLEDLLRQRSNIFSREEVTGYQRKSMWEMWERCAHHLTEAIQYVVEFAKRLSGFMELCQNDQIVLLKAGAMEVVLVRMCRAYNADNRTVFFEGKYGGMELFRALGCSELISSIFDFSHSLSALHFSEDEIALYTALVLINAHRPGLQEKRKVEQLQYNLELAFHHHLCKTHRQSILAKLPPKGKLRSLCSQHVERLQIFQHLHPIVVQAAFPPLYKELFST
In words: RORγ-Ligand Binding Domain (LBD) TR-FRET Assay.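 As to TR-FRET Assay Max Response: 665/615 nm ratio relative to signal without ursolic acid or compound set at 100.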 It counts as biochemical. In outline: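 This TR-FRET coactivator assay pairs baculovirus-expressed His-RORγ-LBD (~3 nM final) with biotin-SRC1 LXXLL peptide at 200 nM final in pH 7.0 Tris/KCl/EDTA/DTT/BSA buffer.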
In general terms: TR-FRET usually uses a lanthanide donor and a delayed reading to cut background.

Another assay addresses T2, Gal4-RORγ-LBD (Homo sapiens, UniProt P51449).
T2 construct: expressed in transfected cells; host or cells: HEK-293 cells (pcDNA3.1neo plasmid)
T2 sequence (P51449 269-508 limits assumed): T1 sequence (P51449 269-508 limits assumed)
In words: Gal4-RORγ Luciferase Reporter Assay in HEK-293T Cells. Conditions: HEK-293 cells. It counts as cell-based. In outline: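 Luminescence read-out (One-Glo, 10 min RT) after overnight compound exposure at 37 °C in HEK-293 cells carrying Gal4-RORγ-LBD plus a Gal4-luciferase reporter, in the presence of 2 μM ursolic acid. Max Response is the upper plateau from a 4-parameter logistic fit, normalized to untreated signal = 100.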
Background: A reporter such as luciferase makes a cellular process visible.

Setting [1] is: luciferase reporter, with 2 μM ursolic acid.

A word on the pEC50: it is the negative decadic logarithm of the EC50, by convention in mol/L. High values mean a small EC50, low ones a large EC50.

pEC50: −log10 of the molar value. A value given as a limit tells only on which side of the number the result lay.

For `CN(CCC(=O)O)C(=O)NC[C@H]1CN(S(=O)(=O)c2cccc(C(F)(F)F)c2)c2cc(-c3cc(F)ccc3F)ccc2O1` [Compound 23R, (S)-3-(3-((6-(2,5-difluorophenyl)-4-((3-(trifluoromethyl)phenyl)-sulfonyl)-3,4-dihydro-2H-benzo[b][1,4]oxazin-2-yl)methyl)-1-methylureido)propanoic acid], on RORγ-LBD, the pEC50 was more than 6.30 and the “TR-FRET Assay Max Response” value is recorded as “**** (The symbol “****” indicates a value greater than 200)”. For the same molecule, on Gal4-RORγ-LBD (setting [1]), the pEC50 was 5.30 to 6.30 and the “Gal4-RORγ Assay Max Response” value is “** (The symbol “**” indicates a value in the range of greater than 90 to 150)”.

As for `O=C(O)C1(C[C@H]2CN(S(=O)(=O)c3cccc(C(F)(F)F)c3)c3cc(-c4cc(F)ccc4Cl)ccc3O2)CCOCC1` [Compound 78D, (S)-4-((6-(2-chloro-5-fluoro-phenyl)-4-((3-(trifluoromethyl)-phenyl)sulfonyl)-3,4-dihydro-2H-benzo[b][1,4]oxazin-2-yl)methyl)tetrahydro-2H-pyran-4-carboxylic acid], at RORγ-LBD, the pEC50 is more than 6.30 and the “TR-FRET Assay Max Response” value was “** (The symbol “**” indicates a value in the range of greater than 90 to 150)”. At Gal4-RORγ-LBD (2 μM ursolic acid), the pEC50 is more than 6.30 and the “Gal4-RORγ Assay Max Response” value is “*** (The symbol “***” indicates a value in the range of greater than 150 to 200)”.

Turning to `COc1cc(S(=O)(=O)N2C[C@H](CCNC(=O)C(C)(C)O)Oc3ccc(-c4cc(F)ccc4F)cc32)ccc1F` [Compound 30M, (S)-N-(2-(6-(2,5-difluorophenyl)-4-((4-fluoro-3-methoxyphenyl)-sulfonyl)-3,4-dihydro-2H-benzo[b][1,4]oxazin-2-yl)ethyl)-2-hydroxy-2-methylpropanamide], at RORγ-LBD, the pEC50 was more than 6.30 and the “TR-FRET Assay Max Response” value is given as “*** (The symbol “***” indicates a value in the range of greater than 150 to 200)”. On Gal4-RORγ-LBD (setting [1]), the pEC50 was more than 6.30 and the “Gal4-RORγ Assay Max Response” value is on record as “* (The symbol “*” indicates a value in the range of 25 to 90)”.

Consider `O=C(O)C1CCN(C(=O)CC[C@H]2CN(S(=O)(=O)c3cccc(C(F)(F)F)c3)c3cc(-c4cccc(C(F)(F)F)n4)ccc3O2)CC1` [Compound 23F, (S)-1-(3-(4-((3-(trifluoromethyl)-phenyl)sulfonyl)-6-(6-(trifluoro-methyl)pyridin-2-yl)-3,4-dihydro-2H-benzo[b][1,4]oxazin-2-yl)propanoyl)piperidine-4-carboxylic acid], for which, at RORγ-LBD, the pEC50 was more than 6.30 and the “TR-FRET Assay Max Response” value was “**** (The symbol “****” indicates a value greater than 200)”. On Gal4-RORγ-LBD (setting [1]), the pEC50 was more than 6.30 and the “Gal4-RORγ Assay Max Response” value is given as “** (The symbol “**” indicates a value in the range of greater than 90 to 150)”.

Turning to `COc1ccc(-c2ccc3c(c2)N(S(=O)(=O)c2cccc(C(F)(F)F)c2)C[C@H](CCC(=O)O)O3)cc1` [Compound 2U, (S)-3-(6-(4-methoxyphenyl)-4-((3-(trifluoromethyl)phenyl)-sulfonyl)-3,4-dihydro-2H-benzo[b][1,4]oxazin-2-yl)propanoic acid], at RORγ-LBD, the negative logarithm of the EC50 (pEC50) is more than 6.30 and the “TR-FRET Assay Max Response” value is given as “*** (The symbol “***” indicates a value in the range of greater than 150 to 200)”. On Gal4-RORγ-LBD (setting [1]), the pEC50 is 5.30 to 6.30 and the “Gal4-RORγ Assay Max Response” value is on record as “* (The symbol “*” indicates a value in the range of 25 to 90)”.

With `CC(C)(C[C@H]1CN(S(=O)(=O)c2cccc(C(F)(F)F)c2)c2cc(-c3cc(Cl)cc(OC(F)F)c3)ccc2O1)C(=O)O` [Compound 32R, (S)-3-(6-(3-chloro-5-(difluoro-methoxy)phenyl)-4-((3-(trifluoro-methyl)phenyl)sulfonyl)-3,4-dihydro-2H-benzo[b][1,4]oxazin-2-yl)-2,2-dimethylpropanoic acid], on RORγ-LBD, the pEC50 was more than 6.30 and the “TR-FRET Assay Max Response” value is “*** (The symbol “***” indicates a value in the range of greater than 150 to 200)”. For the same molecule, on Gal4-RORγ-LBD (setting [1]), the pEC50 was more than 6.30 and the “Gal4-RORγ Assay Max Response” value was “** (The symbol “**” indicates a value in the range of greater than 90 to 150)”.

With `C[C@@H](O)C(=O)NC[C@H]1CN(S(=O)(=O)c2cccc(C(F)(F)F)c2)c2cc(-c3cc(F)ccc3F)ccc2O1` [Compound 30AF, (R)-N-(((S)-6-(2,5-difluoro-phenyl)-4-((3-(trifluoromethyl)-phenyl)sulfonyl)-3,4-dihydro-2H-benzo[b][1,4]oxazin-2-yl)-methyl)-2-hydroxypropanamide], on RORγ-LBD, the negative-log EC50 (pEC50) is more than 6.30 and the “TR-FRET Assay Max Response” value was “*** (The symbol “***” indicates a value in the range of greater than 150 to 200)”. Further, on Gal4-RORγ-LBD (setting [1]), the pEC50 was more than 6.30 and the “Gal4-RORγ Assay Max Response” value is reported as “** (The symbol “**” indicates a value in the range of greater than 90 to 150)”.

With `O=C(O)C1CCN(C(=O)CC[C@H]2CN(S(=O)(=O)c3cccc(C(F)(F)F)c3)c3cc(-c4cccc(F)c4F)ccc3O2)CC1` [Compound 23P, (S)-1-(3-(6-(2,3-difluorophenyl)-4-((3-(trifluoromethyl)-phenyl)sulfonyl)-3,4-dihydro-2H-benzo[b][1,4]oxazin-2-yl)propanoyl)piperidine-4-carboxylic acid], at RORγ-LBD, the pEC50 is more than 6.30 and the “TR-FRET Assay Max Response” value is listed as “**** (The symbol “****” indicates a value greater than 200)”. Moreover, on Gal4-RORγ-LBD (setting [1]), the negative logarithm of the EC50 (pEC50) was more than 6.30 and the “Gal4-RORγ Assay Max Response” value was “*** (The symbol “***” indicates a value in the range of greater than 150 to 200)”.

With `COc1cccc(-c2ccc3c(c2)N(S(=O)(=O)c2cccc(C(F)(F)F)c2)C[C@H](CCc2n[nH]c(=O)o2)O3)c1` [Compound 28E, (S)-5-(2-(6-(3-methoxyphenyl)-4-((3-(trifluoromethyl)phenyl)-sulfonyl)-3,4-dihydro-2H-benzo[b][1,4]oxazin-2-yl)ethyl)-1,3,4-oxadiazol-2(3H)-one], at RORγ-LBD, the pEC50 was more than 6.30 and the “TR-FRET Assay Max Response” value is “**** (The symbol “****” indicates a value greater than 200)”. Besides, on Gal4-RORγ-LBD (setting [1]), the pEC50 is more than 6.30 and the “Gal4-RORγ Assay Max Response” value is listed as “** (The symbol “**” indicates a value in the range of greater than 90 to 150)”.

For `CS(=O)(=O)NC(=O)CC[C@H]1CN(S(=O)(=O)c2cccc(C(F)(F)F)c2)c2cc(-c3cc(F)ccc3F)ccc2O1` [Compound 42, (S)-3-(6-(2,5-difluorophenyl)-4-((3-(trifluoromethyl)phenyl)sulfonyl)-3,4-dihydro-2H-benzo[b][1,4]oxazin-2-yl)-N-(methylsulfonyl)propanamide], on RORγ-LBD, the pEC50 is more than 6.30 and the “TR-FRET Assay Max Response” value is “**** (The symbol “****” indicates a value greater than 200)”. Besides, on Gal4-RORγ-LBD (setting [1]), the pEC50 was more than 6.30 and the “Gal4-RORγ Assay Max Response” value is on record as “** (The symbol “**” indicates a value in the range of greater than 90 to 150)”.

`O=c1[nH]nc(CC[C@H]2CN(S(=O)(=O)c3cccc(C(F)(F)F)c3)c3cc(-c4cccc(C(F)(F)F)n4)ccc3O2)o1` [Compound 28A, (S)-5-(2-(4-((3-(trifluoromethyl)-phenyl)sulfonyl)-6-(6-(trifluoromethyl)pyridin-2-yl)-3,4-dihydro-2H-benzo[b][1,4]oxazin-2-yl)ethyl)-1,3,4-oxadiazol-2(3H)-one]: at RORγ-LBD, the pEC50 was more than 6.30 and the “TR-FRET Assay Max Response” value is “**** (The symbol “****” indicates a value greater than 200)”. Also, at Gal4-RORγ-LBD (setting [1]), the pEC50 was more than 6.30 and the “Gal4-RORγ Assay Max Response” value is given as “** (The symbol “**” indicates a value in the range of greater than 90 to 150)”.

Take `Cc1cc(F)cc(-c2ccc3c(c2)N(S(=O)(=O)c2cccc(C(F)(F)F)c2)C[C@H](CCC(=O)O)O3)c1` [Compound 2BN, (S)-3-(6-(3-fluoro-5-methyl-phenyl)-4-((3-(trifluoromethyl)-phenyl)sulfonyl)-3,4-dihydro-2H-benzo[b][1,4]oxazin-2-yl)propanoic acid]: at RORγ-LBD, the pEC50 is more than 6.30 and the “TR-FRET Assay Max Response” value is “*** (The symbol “***” indicates a value in the range of greater than 150 to 200)”. Moreover, at Gal4-RORγ-LBD (setting [1]), the pEC50 is more than 6.30 and the “Gal4-RORγ Assay Max Response” value is “** (The symbol “**” indicates a value in the range of greater than 90 to 150)”.

As for `O=C(O)CC[C@H]1CN(S(=O)(=O)c2cccc(C(F)(F)F)c2)c2cc(-c3ccc(Cl)c(Cl)c3)ccc2O1` [Compound 2E, (S)-3-(6-(3,4-dichlorophenyl)-4-((3-(trifluoromethyl)phenyl)-sulfonyl)-3,4-dihydro-2H-benzo[b][1,4]oxazin-2-yl)propanoic acid], at RORγ-LBD, the pEC50 was more than 6.30 and the “TR-FRET Assay Max Response” value was “*** (The symbol “***” indicates a value in the range of greater than 150 to 200)”. At Gal4-RORγ-LBD (setting [1]), the pEC50 is more than 6.30 and the “Gal4-RORγ Assay Max Response” value was “** (The symbol “**” indicates a value in the range of greater than 90 to 150)”.

`O=C(NC[C@H]1CN(S(=O)(=O)c2cccc(C(F)(F)F)c2)c2cc(-c3cc(F)ccc3F)ccc2O1)c1cocn1` [Compound 30AJ, (S)-N-((6-(2,5-difluorophenyl)-4-((3-(trifluoromethyl)phenyl)-sulfonyl)-3,4-dihydro-2H-benzo[b][1,4]oxazin-2-yl)methyl)oxazole-4-carboxamide]: on RORγ-LBD, the pEC50 was more than 6.30 and the “TR-FRET Assay Max Response” value was “**** (The symbol “****” indicates a value greater than 200)”. For the same molecule, on Gal4-RORγ-LBD (setting [1]), the pEC50 is more than 6.30 and the “Gal4-RORγ Assay Max Response” value is recorded as “** (The symbol “**” indicates a value in the range of greater than 90 to 150)”.
